Measured values as given in patent publication US20040023886A1, “Method for treating neurological conditions and inducing immunosuppression with cephaibols” (Aventis Pharma Deutschland Gmbh, priority 2002, published 2004).
“Also recorded” adds a separate entry of the source. Where a SMILES comes first, the peptide text is derived from it. [ ]: non-standard residue; d: D form. Hyp = O=C(O)[CH]1C[CH](O)CN1; Phe(ol) = N[CH](CO)Cc1ccccc1; Iva = CC[C](C)(N)C(=O)O; Aib = CC(C)(N)C(=O)O

How the values were obtained:
laboratory mice [1] = test: Influence on spontaneous motility (neuroleptic effect, mouse model); type: in vivo; details: 10 mg/kg intraperitoneal, observed from 5 min up to 24 hours
Experimental: (§1) Neuroleptic effect of the cephaibols in the mouse model
The influence of cephaibols A, B, C, D and E on motoricity in laboratory mice was observed over various periods of time (from 5 min up to 24 hours).
Fright reactions (noises) were retained, thereby ruling out the possibility of the cephaibols having a narcotic effect in the experimental arrangement.

Phoma destructiva = test: Induction of pigment formation in Phoma destructiva, punched-hole plate agar diffusion test; type: cell-based; details: 50 µL of test solution per hole, 20 to 25° C., 4 to 5 days
Text: The induction of pigment formation in the fungus Phoma destructiva is a test model for, inter alia, identifying a potential immunosuppressant effect in test substances. The implementation of the Phoma destructiva test has been described by K. Dornberger et al. in J. Antibiotics, §, 977-989,1995.
The organism Phoma destructiva is a fungus which is known to be pathogenic to plants and which grows, in feebly colored colonies, on agar plates which have been inoculated with vegetative mycelium. Cell differentiation processes, which are accompanied by the formation of a pigment and therefore enable cell differentiation to be detected, are initiated under the influence of special inducers. The pigment, which is a melanin-like substance, can be recognized by its color and quantified photometrically or by measuring the zone size.
The fungus Phoma destructiva was cultured on sloping agar tubes containing culture medium A or B at from 20 to 25° C. and then stored at from 4 to 6° C. and reinoculated in a 2-year rhythm.
The fungus Phoma destructiva was cultured at from 20 to 25° C. for 11 days on medium B in 100 mm diameter petri dishes and, after that, washed off with 10 ml of a sterile 0.9% solution of NaCl. The wash-off can be used for 5 days when stored at 8° C.
The agar diffusion test method was a modification of the standardized agar diffusion assay described in the European Pharmacopoeia [Deutscher Apothekerverlag Stuttgart, pages 113-118, 1997]: 40 mL of test agar medium were liquefied and brought to a constant temperature of 50° C.; from 8 to 10 mL of the inoculation culture were added under sterile conditions and the mixture was then poured into 150 mm diameter test plates. After the plates had cooled, 12 punched holes of 9 mm in diameter were arranged on the plate using a punching implement [J, V. Benett et al. Appl. Micr.1.1;, 170-177, 1966]. The test holes were loaded with 50JiL of the solution to be tested, with one test hole containing cyclosporin as the control substance (1 μg of cyclosporin A in 50 μL of methanol). […]

laboratory mice [2] = test: Hypothermia (neuroleptic effect, mouse model); type: in vivo; details: 10 mg/kg intraperitoneal
Text: as §1

platelet aggregation = details: literature; cited from earlier work

## CCC(C)(NC(=O)C(CC(C)C)NC(=O)CNC(=O)C(C)(C)NC(=O)C(C)(C)NC(=O)C(C)(C)NC(=O)C(C)(C)NC(=O)C(Cc1ccccc1)NC(C)=O)C(=O)NC(C)(C)C(=O)N1CC(O)CC1C(=O)NC(CCC(N)=O)C(=O)NC(C)(C)C(=O)N1CC(O)CC1C(=O)NC(C)(C)C(=O)N1CCCC1C(=O)NC(CO)Cc1ccccc1 (stereo not drawn) [cephaibol C, AcPhe-Aib-Aib-Aib-Aib-Gly-Leu-Iva-Aib-Hyp-Gln-Aib-Hyp-Aib-Pro-Phe-ol] (Ac-F[Aib][Aib][Aib][Aib]GL[Iva][Aib][Hyp]Q[Aib][Hyp][Aib]P[Phe(ol)]; configuration not given here)
Laboratory mice [1]
  motoricity (climbing) in comparison with the control mice: impaired; also recorded: particularly pronounced
Phoma destructiva
  pigment formation in Phoma destructiva: particularly pronounced
Laboratory mice [2]
  body temperature as compared with the control animals: marked reduction; also recorded: particularly pronounced

## Clonostachin
Platelet aggregation
  platelet aggregation: inhibits

## CCC(C)(NC(=O)C(CC(C)C)NC(=O)CNC(=O)C(C)(C)NC(=O)C(C)(C)NC(=O)C(C)(C)NC(=O)C(C)(C)NC(=O)C(Cc1ccccc1)NC(C)=O)C(=O)NC(C)(C)C(=O)N1CC(O)CC1C(=O)NC(CCC(N)=O)C(=O)NC(C)(C)C(=O)N1CC(O)CC1C(=O)NC(C)(C)C(=O)N1CCCC1C(=O)NC(CO)Cc1ccccc1 (stereo not drawn) [cephaibol D, AcPhe-Aib-Aib-Aib-Aib-Gly-Leu-Aib-Aib-Hyp-Gln-Aib-Hyp-Aib-Pro-Xaa5] (Ac-F[Aib][Aib][Aib][Aib]GL[Iva][Aib][Hyp]Q[Aib][Hyp][Aib]P[Phe(ol)]; configuration not given here)
Laboratory mice [1]
  motoricity (climbing) in comparison with the control mice: impaired

## CCC(C)(NC(=O)C(CC(C)C)NC(=O)CNC(=O)C(C)(C)NC(=O)C(C)(C)NC(=O)C(C)(C)NC(=O)C(C)(C)NC(=O)C(Cc1ccccc1)NC(C)=O)C(=O)NC(C)(C)C(=O)N1CC(O)CC1C(=O)NC(CCC(N)=O)C(=O)NC(C)(CC)C(=O)N1CC(O)CC1C(=O)NC(C)(C)C(=O)N1CCCC1C(=O)NC(CO)Cc1ccccc1 (stereo not drawn) [cephaibol A, AcPhe-Aib-Aib-Aib-Aib-Gly-Leu-Iva-Aib-Hyp-Gln-Iva-Hyp-Aib-Pro-Phe-ol] (Ac-F[Aib][Aib][Aib][Aib]GL[Iva][Aib][Hyp]Q[Iva][Hyp][Aib]P[Phe(ol)]; configuration not given here)
Laboratory mice [1]
  motoricity (climbing) in comparison with the control mice: impaired
Phoma destructiva
  pigment formation in Phoma destructiva: particularly pronounced
Laboratory mice [2]
  body temperature as compared with the control animals: marked reduction

## CCC(C)(NC(=O)C(CC(C)C)NC(=O)CNC(=O)C(C)(CC)NC(=O)C(C)(C)NC(=O)C(C)(C)NC(=O)C(C)(C)NC(=O)C(Cc1ccccc1)NC(C)=O)C(=O)NC(C)(C)C(=O)N1CC(O)CC1C(=O)NC(CCC(N)=O)C(=O)NC(C)(CC)C(=O)N1CC(O)CC1C(=O)NC(C)(C)C(=O)N1CCCC1C(=O)NC(CO)Cc1ccccc1 (stereo not drawn) [cephaibol B, AcPhe-Aib-Aib-Aib-Iva-Gly-Leu-Iva-Aib-Hyp-Gln-Iva-Hyp-Aib-Pro-Phe-ol] (Ac-F[Aib][Aib][Aib][Iva]GL[Iva][Aib][Hyp]Q[Iva][Hyp][Aib]P[Phe(ol)]; configuration not given here)
Laboratory mice [1]
  motoricity (climbing) in comparison with the control mice: impaired; also recorded: particularly pronounced
Phoma destructiva
  pigment formation in Phoma destructiva: particularly pronounced
Laboratory mice [2]
  body temperature as compared with the control animals: marked reduction; also recorded: particularly pronounced
